Laboratory results: patent US20160303184A1, “VANCOMYCIN-SUGAR CONJUGATES AND USES THEREOF” (JAWAHARLAL NEHRU CENTRE FOR ADVANCED SCIENTIFIC RESEARCH …, priority 2013, published 2016)
In brackets after ≈: the same amount, converted by molar mass. Where two headings read alike, the source gives them in different places.

What was measured:
Format in all cases: cell-based
[1] = test system: Methicillin-sensitive S. aureus (MTCC 737); assay: MIC, micro-dilution broth, MSSA; details: MTCC 737, read-out: MIC MSSA
Description: (§1) All test compounds were assayed in a micro-dilution broth format. Stock solutions were made by serially diluting the compounds using autoclaved millipore water or broth media. The antibacterial activity of the compounds was determined against methicillin-sensitive S. aureus (MSSA), methicillin-resistant S. aureus (MRSA), vancomycin-intermediate-resistant S. aureus (VISA), vancomycin-sensitive E. faecium (VSE) and vancomycin-resistant E. faecium (VRE). Bacteria, to be tested, were grown for about 10 h in the suitable media, MSSA, MRSA and VISA were grown in yeast-dextrose broth (about 1 g of beef extract, about 2 g of yeast extract, about 5 g of peptone and about 5 g of NaCl in about 1000 mL of sterile distilled water (pH-7)). For solid media, about 5% agar was used along with above mentioned composition. VSE and VRE were cultured in brain heart infusion broth (Himedia). The bacterial samples were freeze dried and stored at −80° C. About 5 μL of these stocks were added to about 3 mL of the nutrient broth and the culture was grown for about 6 h at about 37° C. prior to the experiments. This 6 h grown culture gives about 10^9 cfu/mL and this was determined by spread plating method. The 6 h grown culture was diluted to give effective cell concentration of about 10^5 cfu/mL which was then used for determining MIC. Compounds were serially diluted, in sterile water (2 fold dilution is employed) in a way that the working concentration was about 10 μM for MSSA, MRSA, and VSE while for VRE and VISA it was about 100 μM. About 50 μL of these serial dilutions were added to the wells of 96 well plate followed by the addition of about 150 μL of bacterial solution. The plates were then incubated at about 37° C., 150 rpm in the incubator and O.D at 600 nm was recorded at an interval of about 10 h and 24 h using TECAN (Infinite series, M200 pro) Plate Reader. Each concentration had triplicate values and the whole experiment was done at least twice and the MIC value was determined by taking the average of triplicate. O. D. values for each concentration and plotting it against concentration. The data was then subjected to sigmoidal fitting. From the curve the MIC value was determined, as the point in the curve where the O. D. was similar to that of control having no bacteria.

[2] = test system: Methicillin-resistant S. aureus (ATCC 33591); assay: MIC, micro-dilution broth, MRSA; details: ATCC 33591, read-out: MIC MRSA
Description: as §1

[3] = test system: Vancomycin intermediate resistant S. aureus; assay: MIC, micro-dilution broth, VISA; details: read-out: MIC VISA
Description: as §1

[4] = test system: Vancomycin-sensitive E. faecium (ATCC 19634); assay: MIC, micro-dilution broth, VSE; details: read-out: MIC VSE
Description: as §1

[5] = test system: Vancomycin-resistant E. faecium (VanA, ATCC 51559); assay: MIC, micro-dilution broth, VRE (VanA); details: E. faecium ATCC 51559, read-out: MIC VRE (VanA)
Description: as §1

[6] = test system: Vancomycin-resistant E. faecalis (VanA, ATCC 51575); assay: MIC, micro-dilution broth, VRE (VanB); details: Enterococcus faecalis; E. faecalis ATCC 51575; read-out: MIC VRE (VanB)
[7] = Enterococcus faecium, ATCC19634, ATCC 19634

MIC ([1]; Staphylococcus aureus) [µM]	MIC ([2]; Staphylococcus aureus) [µM]	MIC ([3]; Staphylococcus aureus, VISA) [µM]	MIC [4, 7] [µM]	MIC ([5]; Enterococcus faecium) [µM]	MIC [6] [µM]	MIC [1] [µM]	MIC [2] [µM]	MIC [3] [µM]	MIC ([4]; ATCC 19634) [µM]	MIC [5] [µM]	Structure (SMILES)
0.3 (≈ 0.468 µg/mL)	0.3 (≈ 0.468 µg/mL)	0.4 (≈ 0.625 µg/mL)	0.4 (≈ 0.625 µg/mL)	25 (≈ 39 µg/mL)	12.5 (≈ 19.5 µg/mL)	–	–	–	–	–	CCCCCCCCN[C@]1(C)C[C@H](OC2C(O)[C@@H](O)C(CO)O[C@@H]2Oc2c3cc4cc2Oc2ccc(cc2Cl)[C@@H](O)[C@@H](NC(=O)[C@@H](CC(C)C)NC)C(=O)N[C@@H](CC(N)=O)C(=O)N[C@H]4C(=O)N[C@H]2C(=O)N[C@H](C(=O)N[C@H](C(=O)O)c4cc(O)cc(O)c4-c4cc2ccc4O)[C@H](O)c2ccc(c(Cl)c2)O3)OC(C)[C@@H]1O (some centres unmarked) [Compound 15]
0.3 (≈ 0.554 µg/mL)	0.38 (≈ 0.701 µg/mL)	0.3 (≈ 0.554 µg/mL)	0.4 (≈ 0.738 µg/mL)	36 (≈ 66.4 µg/mL)	–	–	–	–	–	–	CN[C@H](CC(C)C)C(=O)N[C@H]1C(=O)N[C@@H](CC(N)=O)C(=O)N[C@H]2C(=O)N[C@H]3C(=O)N[C@H](C(=O)N[C@H](C(=O)NCCCNC(=O)[C@H](O)[C@@H](O)[C@H](OC4OC(CO)C(O)C(O)C4O)[C@H](O)CO)c4cc(O)cc(O)c4-c4cc3ccc4O)[C@H](O)c3ccc(c(Cl)c3)Oc3cc2cc(c3O[C@H]2OC(CO)[C@H](O)C(O)C2O[C@H]2C[C@@](C)(N)[C@H](O)C(C)O2)Oc2ccc(cc2Cl)[C@H]1O (some centres unmarked) [Compound 4]
1 (≈ 1.83 µg/mL)	1 (≈ 1.83 µg/mL)	1.08 (≈ 1.98 µg/mL)	0.66 (≈ 1.21 µg/mL)	> 100	–	–	–	–	–	–	CN[C@H](CC(C)C)C(=O)N[C@H]1C(=O)N[C@@H](CC(N)=O)C(=O)N[C@H]2C(=O)N[C@H]3C(=O)N[C@H](C(=O)N[C@H](C(=O)NCCCNCC(O)C(O)C(OC4OC(CO)C(O)C(O)C4O)C(O)CO)c4cc(O)cc(O)c4-c4cc3ccc4O)[C@H](O)c3ccc(c(Cl)c3)Oc3cc2cc(c3O[C@H]2OC(CO)[C@H](O)C(O)C2O[C@H]2C[C@@](C)(N)[C@H](O)C(C)O2)Oc2ccc(cc2Cl)[C@H]1O (some centres unmarked) [Compound 5]
–	–	–	–	–	–	1.2 (≈ 1.99 µg/mL)	1.4 (≈ 2.32 µg/mL)	2.02 (≈ 3.34 µg/mL)	1.2 (≈ 1.99 µg/mL)	>100	CN[C@H](CC(C)C)C(=O)N[C@H]1C(=O)N[C@@H](CC(N)=O)C(=O)N[C@H]2C(=O)N[C@H]3C(=O)N[C@H](C(=O)N[C@H](C(=O)NCCOC4OC(CO)C(O)C(O)C4O)c4cc(O)cc(O)c4-c4cc3ccc4O)[C@H](O)c3ccc(c(Cl)c3)Oc3cc2cc(c3O[C@H]2OC(CO)[C@H](O)C(O)C2O[C@H]2C[C@@](C)(N)[C@H](O)C(C)O2)Oc2ccc(cc2Cl)[C@H]1O (some centres unmarked) [Compound 2]
0.3 (≈ 0.485 µg/mL)	0.3 (≈ 0.485 µg/mL)	0.3 (≈ 0.485 µg/mL)	0.2 (≈ 0.324 µg/mL)	7 (≈ 11.3 µg/mL)	3.1 (≈ 5.01 µg/mL)	–	–	–	–	–	CCCCCCCCCCCCN[C@]1(C)C[C@H](OC2C(O)[C@@H](O)C(CO)O[C@@H]2Oc2c3cc4cc2Oc2ccc(cc2Cl)[C@@H](O)[C@@H](NC(=O)[C@@H](CC(C)C)NC)C(=O)N[C@@H](CC(N)=O)C(=O)N[C@H]4C(=O)N[C@H]2C(=O)N[C@H](C(=O)N[C@H](C(=O)O)c4cc(O)cc(O)c4-c4cc2ccc4O)[C@H](O)c2ccc(c(Cl)c2)O3)OC(C)[C@@H]1O (some centres unmarked) [Compound 16]
0.6 (≈ 1.01 µg/mL)	0.7 (≈ 1.18 µg/mL)	0.88 (≈ 1.48 µg/mL)	0.5 (≈ 0.842 µg/mL)	54 (≈ 90.9 µg/mL)	–	–	–	–	–	–	CN[C@H](CC(C)C)C(=O)N[C@H]1C(=O)N[C@@H](CC(N)=O)C(=O)N[C@H]2C(=O)N[C@H]3C(=O)N[C@H](C(=O)N[C@H](C(=O)NCCCNC(=O)[C@H](O)[C@@H](O)[C@H](O)[C@H](O)CO)c4cc(O)cc(O)c4-c4cc3ccc4O)[C@H](O)c3ccc(c(Cl)c3)Oc3cc2cc(c3O[C@H]2OC(CO)[C@H](O)C(O)C2O[C@H]2C[C@@](C)(N)[C@H](O)C(C)O2)Oc2ccc(cc2Cl)[C@H]1O (some centres unmarked) [Compound 3]
